Experiment: Cellular CaCo2 permeability assay from apical to basal (A-B)
Type: in vitro ADME
Conditions: human, Caco-2, read-out: Pe A-B (permeability)
From the text: The permeability in 10^−6 cm/s of compounds of formula (I) have been confirmed for selected example using a cellular CaCo2 permeability assay from apical to basal (A-B): […]
Compound `CCOc1ccc(-c2ccc3ncc4c(c3c2)n(-c2cn(C)nc2C)c(=O)n4C)cn1` [Example 3.1, 1-(1,3-Dimethyl-1H-pyrazol-4-yl)-8-(6-ethoxy-pyridin-3-yl)-3-methyl-1,3-dihydro-imidazo[4,5-c]quinolin-2-one] has a Papp A→B of 28.6 ×10⁻⁶ cm/s.
For `Cc1nn(C)cc1-n1c(=O)n(C)c2cnc3ccc(-c4cnc(N(C)C)nc4)cc3c21` [Example 6.2, 8-(2-Dimethylamino-pyrimidin-5-yl)-1-(1,3-dimethyl-1H-pyrazol-4-yl)-3-methyl-1,3-dihydro-imidazo[4,5-c]quinolin-2-one], the Papp A→B was 26.6 ×10⁻⁶ cm/s.
`COc1cncc(-c2ccc3ncc4c(c3c2)n(-c2cn(C)nc2C)c(=O)n4C)c1` [Example 12, 1-(1,3-Dimethyl-1H-pyrazol-4-yl)-8-(5-methoxy-pyridin-3-yl)-3-methyl-1,3-dihydro-imidazo[4,5-c]quinolin-2-one] showed a Papp A→B of 24 ×10⁻⁶ cm/s.
`COCc1cncc(-c2ccc3ncc4c(c3c2)n(-c2cn(C)nc2Cl)c(=O)n4C)c1` [Example 54.2, 1-(3-Chloro-1-methyl-1H-pyrazol-4-yl)-8-(5-methoxymethyl-pyridin-3-yl)-3-methyl-1,3-dihydro-imidazo[4,5-c]quinolin-2-one] gave a Papp A→B of 33.5 ×10⁻⁶ cm/s.
For `CCOc1cncc(-c2ccc3ncc4c(c3c2)n(-c2cn(C)nc2C)c(=O)n4C)c1` [Example 56.1, 1-(1,3-Dimethyl-1H-pyrazol-4-yl)-8-(5-ethoxy-pyridin-3-yl)-3-methyl-1,3-dihydro-imidazo[4,5-c]quinolin-2-one], the Papp A→B was 39.7 ×10⁻⁶ cm/s.
In the case of `CCOc1ccc(-c2ccc3ncc4c(c3c2)n(-c2cn(CC(=O)N(C)CC)nc2C)c(=O)n4C)cn1` [Example 136, 2-{4-[8-(6-Ethoxy-pyridin-3-yl)-3-methyl-2-oxo-2,3-dihydro-imidazo[4,5-c]quinolin-1-yl]-3-methyl-pyrazol-1-yl}-N-ethyl-N-methyl-acetamide], the Papp A→B was 17 ×10⁻⁶ cm/s.
With `CNc1ncc(-c2ccc3ncc4c(c3c2)n(-c2cn(C)nc2C)c(=O)n4C)cc1Cl` [Example 146.1, 8-(5-Chloro-6-methylamino-pyridin-3-yl)-1-(1,3-dimethyl-1H-pyrazol-4-yl)-3-methyl-1,3-dihydro-imidazo[4,5-c]quinolin-2-one] the Papp A→B was 29.1 ×10⁻⁶ cm/s.
`CNc1cc(-c2ccc3ncc4c(c3c2)n(-c2cn(C)nc2C)c(=O)n4C)cnc1COC` [Example 159, 1-(1,3-Dimethyl-1H-pyrazol-4-yl)-8-(6-methoxymethyl-5-methylamino-pyridin-3-yl)-3-methyl-1,3-dihydro-imidazo[4,5-c]quinolin-2-one] gave a Papp A→B of 13.9 ×10⁻⁶ cm/s.
Compound `CCOc1cc(-c2ccc3ncc4c(c3c2)n(-c2cn(C)nc2C)c(=O)n4C)cnc1COC` [Example 197.1, 1-(1,3-Dimethyl-1H-pyrazol-4-yl)-8-(5-ethoxy-6-methoxymethyl-pyridin-3-yl)-3-methyl-1,3-dihydro-imidazo[4,5-c]quinolin-2-one] has a Papp A→B of 15.8 ×10⁻⁶ cm/s.
With `Cc1nn(C(C)C)cc1-n1c(=O)n(C)c2cnc3ccc(-c4cncc(C(C)(C)O)c4)cc3c21` [Example 215.1, 8-[5-(1-Hydroxy-1-methyl-ethyl)-pyridin-3-yl]-1-(1-isopropyl-3-methyl-1H-pyrazol-4-yl)-3-methyl-1,3-dihydro-imidazo[4,5-c]quinolin-2-one] the Papp A→B was 5.9 ×10⁻⁶ cm/s.
For `CCn1cc(-n2c(=O)n(C)c3cnc4ccc(-c5cnc(OC)nc5OC)cc4c32)c(C)n1` [Example 234.1, 8-(2,4-Dimethoxy-pyrimidin-5-yl)-1-(1-ethyl-3-methyl-1H-pyrazol-4-yl)-3-methyl-1,3-dihydro-imidazo[4,5-c]quinolin-2-one], the Papp A→B was 35.5 ×10⁻⁶ cm/s.
In the case of `COc1ccc(-c2ccc3ncc4[nH]c(=O)n(-c5cc(C)nn5C)c4c3n2)cc1OC` [Example 252, 8-(3,4-Dimethoxy-phenyl)-1-(2,5-dimethyl-2H-pyrazol-3-yl)-1,3-dihydro-1,3,5,9-tetraaza-cyclopenta[a]naphthalen-2-one], the Papp A→B was 29.4 ×10⁻⁶ cm/s.

— patent US20140005163A1 (NOVARTIS AG, priority 2010, published 2014)
